Results as given in the supplement of paper PMC10307832.

How the values were obtained:
Assay in all cases: relative viability (nuclei count vs DMSO), 5 days (fraction); higher = more cells survive
[1] = compound: C[C@@H](C(=O)N[C@@H](C1CCCCC1)C(=O)N2CCC[C@H]2C(=O)N[C@@H]3[C@@H](CC4=CC=CC=C34)OCC#CC#CCO[C@@H]5CC6=CC=CC=C6[C@@H]5NC(=O)[C@@H]7CCCN7C(=O)[C@H](C8CCCCC8)NC(=O)[C@H](C)NC)NC [AZD5582] + C[C@]1(O)C[C@@H](c2nc(-c3ccc4ccc(-c5ccccc5)nc4c3)c3c(N)nccn32)C1 [Linsitinib] (partner 1 µM)
Method in brief: (§1)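 Relative viability divides the nuclei count in treated wells by that in vehicle wells. Lung cancer cell lines were seeded in 1536-well plates, dosed by pin tool the next day, and fixed and stained after 5 days in one step with final 0.05% Triton X-100, 1% formaldehyde and 1 ug/ml Hoechst. Dosing was a single drug or a fixed anchor-drug dose plus five library-drug doses (not always all listed) in √10 steps, and values are medians of duplicate plates imaged at 4×.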

[2] = compound: Cn1nnc2c(C(N)=O)ncn2c1=O [Temozolomide] + C[C@@H](Oc1cc(-c2cnn(C3CCNCC3)c2)cnc1N)c1c(Cl)ccc(F)c1Cl [Crizotinib] (partner 1 µM)
Method in brief: as §1

[3] = compound: Cn1nnc2c(C(N)=O)ncn2c1=O [Temozolomide] + Nc1nc2[nH]cc(CCc3ccc(C(=O)N[C@@H](CCC(=O)O)C(=O)O)cc3)c2c(=O)[nH]1 [Pemetrexed] (partner 0.2 µM)
Method in brief: as §1

[4] = compound: Cn1nnc2c(C(N)=O)ncn2c1=O [Temozolomide] + O=C(c1cc(Cc2n[nH]c(=O)c3ccccc23)ccc1F)N1CCN(C(=O)C2CC2)CC1 [Olaparib] (partner 8 µM)
Method in brief: as §1

## RERF-LC-KJ
[1]; first compound 0.001581 µM
  relative viability: 0.525
[1]; first compound 0.005 µM
  relative viability: 0.481
[1]; first compound 0.01581 µM
  relative viability: 0.879
[1]; first compound 0.05 µM
  relative viability: 0.464
[2]; first compound 0.2 µM
  relative viability: 0.884
[2]; first compound 0.6325 µM
  relative viability: 0.848
[2]; first compound 2 µM
  relative viability: 0.838
[2]; first compound 6.325 µM
  relative viability: 0.818
[2]; first compound 20 µM
  relative viability: 0.833
[3]; first compound 0.2 µM
  relative viability: 0.484
[3]; first compound 0.6325 µM
  relative viability: 0.507
[3]; first compound 2 µM
  relative viability: 0.486
[3]; first compound 6.325 µM
  relative viability: 0.464
[3]; first compound 20 µM
  relative viability: 0.461
[4]; first compound 0.2 µM
  relative viability: 0.975
[4]; first compound 0.6325 µM
  relative viability: 1.05
[4]; first compound 2 µM
  relative viability: 0.998
[4]; first compound 6.325 µM
  relative viability: 0.846
[4]; first compound 20 µM
  relative viability: 0.799

## NCI-H2228
[1]; first compound 0.001581 µM
  relative viability: 0.903
[1]; first compound 0.005 µM
  relative viability: 0.689
[1]; first compound 0.01581 µM
  relative viability: 0.813
[1]; first compound 0.05 µM
  relative viability: 0.44
[2]; first compound 0.2 µM
  relative viability: 0.529
[2]; first compound 0.6325 µM
  relative viability: 0.536
[2]; first compound 2 µM
  relative viability: 0.466
[2]; first compound 6.325 µM
  relative viability: 0.399
[2]; first compound 20 µM
  relative viability: 0.369
[3]; first compound 0.2 µM
  relative viability: 0.383
[3]; first compound 0.6325 µM
  relative viability: 0.349
[3]; first compound 2 µM
  relative viability: 0.348
[3]; first compound 6.325 µM
  relative viability: 0.266
[3]; first compound 20 µM
  relative viability: 0.352
[4]; first compound 0.2 µM
  relative viability: 0.95
[4]; first compound 0.6325 µM
  relative viability: 0.671
[4]; first compound 2 µM
  relative viability: 0.363
[4]; first compound 6.325 µM
  relative viability: 0.697
[4]; first compound 20 µM
  relative viability: 0.479

## SW 1573
[1]; first compound 0.001581 µM
  relative viability: 0.918
[1]; first compound 0.005 µM
  relative viability: 0.834
[1]; first compound 0.01581 µM
  relative viability: 0.801
[1]; first compound 0.05 µM
  relative viability: 0.916
[2]; first compound 0.2 µM
  relative viability: 0.801
[2]; first compound 0.6325 µM
  relative viability: 0.787
[2]; first compound 2 µM
  relative viability: 0.82
[2]; first compound 6.325 µM
  relative viability: 0.594
[2]; first compound 20 µM
  relative viability: 0.846
[3]; first compound 0.2 µM
  relative viability: 0.907
[3]; first compound 0.6325 µM
  relative viability: 0.833
[3]; first compound 2 µM
  relative viability: 0.845
[3]; first compound 6.325 µM
  relative viability: 0.867
[3]; first compound 20 µM
  relative viability: 0.846
[4]; first compound 0.2 µM
  relative viability: 0.585
[4]; first compound 0.6325 µM
  relative viability: 0.534
[4]; first compound 2 µM
  relative viability: 0.424
[4]; first compound 6.325 µM
  relative viability: 0.302
[4]; first compound 20 µM
  relative viability: 0.236

## NCI-H1792
[1]; first compound 0.001581 µM
  relative viability: 0.49
[1]; first compound 0.005 µM
  relative viability: 0.588
[1]; first compound 0.01581 µM
  relative viability: 0.516
[1]; first compound 0.05 µM
  relative viability: 0.792
[2]; first compound 0.2 µM
  relative viability: 0.957
[2]; first compound 0.6325 µM
  relative viability: 1.05
[2]; first compound 2 µM
  relative viability: 1
[2]; first compound 6.325 µM
  relative viability: 0.76
[2]; first compound 20 µM
  relative viability: 0.972
[3]; first compound 0.2 µM
  relative viability: 1.11
[3]; first compound 0.6325 µM
  relative viability: 0.993
[3]; first compound 2 µM
  relative viability: 0.954
[3]; first compound 6.325 µM
  relative viability: 0.819
[3]; first compound 20 µM
  relative viability: 1.01
[4]; first compound 0.2 µM
  relative viability: 0.31
[4]; first compound 0.6325 µM
  relative viability: 0.388
[4]; first compound 2 µM
  relative viability: 0.251
[4]; first compound 6.325 µM
  relative viability: 0.361
[4]; first compound 20 µM
  relative viability: 0.31

## ChaGo-K-1
[2]; first compound 0.2 µM
  relative viability: 1.3
[2]; first compound 0.6325 µM
  relative viability: 1.16
[2]; first compound 2 µM
  relative viability: 1.15
[2]; first compound 6.325 µM
  relative viability: 0.646
[2]; first compound 20 µM
  relative viability: 1.12
[3]; first compound 0.2 µM
  relative viability: 0.258
[3]; first compound 0.6325 µM
  relative viability: 0.256
[3]; first compound 2 µM
  relative viability: 0.263
[3]; first compound 6.325 µM
  relative viability: 0.257
[3]; first compound 20 µM
  relative viability: 0.246
[4]; first compound 0.2 µM
  relative viability: 0.437
[4]; first compound 0.6325 µM
  relative viability: 0.417
[4]; first compound 2 µM
  relative viability: 0.4
[4]; first compound 6.325 µM
  relative viability: 0.315
[4]; first compound 20 µM
  relative viability: 0.228

## NCI-H1650
[2]; first compound 0.2 µM
  relative viability: 1.08
[2]; first compound 0.6325 µM
  relative viability: 1.12
[2]; first compound 2 µM
  relative viability: 1.05
[2]; first compound 6.325 µM
  relative viability: 0.9
[2]; first compound 20 µM
  relative viability: 0.799
[3]; first compound 0.2 µM
  relative viability: 0.335
[3]; first compound 0.6325 µM
  relative viability: 0.349
[3]; first compound 2 µM
  relative viability: 0.443
[3]; first compound 6.325 µM
  relative viability: 0.355
[3]; first compound 20 µM
  relative viability: 0.459
[4]; first compound 0.2 µM
  relative viability: 0.854
[4]; first compound 0.6325 µM
  relative viability: 0.795
[4]; first compound 2 µM
  relative viability: 0.776
[4]; first compound 6.325 µM
  relative viability: 0.672
[4]; first compound 20 µM
  relative viability: 0.703

## HARA
[1]; first compound 0.001581 µM
  relative viability: 1.01
[1]; first compound 0.005 µM
  relative viability: 0.897
[1]; first compound 0.01581 µM
  relative viability: 0.951
[1]; first compound 0.05 µM
  relative viability: 0.867
[2]; first compound 0.2 µM
  relative viability: 1.04
[2]; first compound 0.6325 µM
  relative viability: 1.05
[2]; first compound 2 µM
  relative viability: 1.15
[2]; first compound 6.325 µM
  relative viability: 1.01
[2]; first compound 20 µM
  relative viability: 0.949
[3]; first compound 0.2 µM
  relative viability: 0.203
[3]; first compound 0.6325 µM
  relative viability: 0.228
[3]; first compound 2 µM
  relative viability: 0.269
[3]; first compound 6.325 µM
  relative viability: 0.2
[3]; first compound 20 µM
  relative viability: 0.273
[4]; first compound 0.2 µM
  relative viability: 0.9
[4]; first compound 0.6325 µM
  relative viability: 1.19
[4]; first compound 2 µM
  relative viability: 0.844
[4]; first compound 6.325 µM
  relative viability: 1.01
[4]; first compound 20 µM
  relative viability: 0.444

## SW 900
[3]; first compound 0.2 µM
  relative viability: 0.525
[3]; first compound 0.6325 µM
  relative viability: 0.496
[3]; first compound 2 µM
  relative viability: 0.507
[3]; first compound 6.325 µM
  relative viability: 0.474
[3]; first compound 20 µM
  relative viability: 0.472
[4]; first compound 0.2 µM
  relative viability: 1.02
[4]; first compound 0.6325 µM
  relative viability: 1.05
[4]; first compound 2 µM
  relative viability: 0.871
[4]; first compound 6.325 µM
  relative viability: 0.946
[4]; first compound 20 µM
  relative viability: 0.776

## NCI-H520
[1]; first compound 0.001581 µM
  relative viability: 0.808
[1]; first compound 0.005 µM
  relative viability: 0.948
[1]; first compound 0.01581 µM
  relative viability: 0.967
[1]; first compound 0.05 µM
  relative viability: 0.923
[2]; first compound 0.2 µM
  relative viability: 0.763
[2]; first compound 0.6325 µM
  relative viability: 0.955
[2]; first compound 2 µM
  relative viability: 0.811
[2]; first compound 6.325 µM
  relative viability: 0.939
[2]; first compound 20 µM
  relative viability: 0.947
[3]; first compound 0.2 µM
  relative viability: 0.723
[3]; first compound 0.6325 µM
  relative viability: 0.595
[3]; first compound 2 µM
  relative viability: 0.711
[3]; first compound 6.325 µM
  relative viability: 0.631
[3]; first compound 20 µM
  relative viability: 0.74
[4]; first compound 0.2 µM
  relative viability: 0.391
[4]; first compound 0.6325 µM
  relative viability: 0.33
[4]; first compound 2 µM
  relative viability: 0.312
[4]; first compound 6.325 µM
  relative viability: 0.284
[4]; first compound 20 µM
  relative viability: 0.242
